{"source": "ChEMBL document CHEMBL2176875", "about": "“Ago-allosteric modulators of human glucagon-like peptide 2 receptor” (Bioorg Med Chem Lett, 2012)", "key": {"[1]": {"target": "T1, Glucagon-like peptide 2 receptor (Homo sapiens) (UniProt O95838)", "T1 sequence (whole entry)": "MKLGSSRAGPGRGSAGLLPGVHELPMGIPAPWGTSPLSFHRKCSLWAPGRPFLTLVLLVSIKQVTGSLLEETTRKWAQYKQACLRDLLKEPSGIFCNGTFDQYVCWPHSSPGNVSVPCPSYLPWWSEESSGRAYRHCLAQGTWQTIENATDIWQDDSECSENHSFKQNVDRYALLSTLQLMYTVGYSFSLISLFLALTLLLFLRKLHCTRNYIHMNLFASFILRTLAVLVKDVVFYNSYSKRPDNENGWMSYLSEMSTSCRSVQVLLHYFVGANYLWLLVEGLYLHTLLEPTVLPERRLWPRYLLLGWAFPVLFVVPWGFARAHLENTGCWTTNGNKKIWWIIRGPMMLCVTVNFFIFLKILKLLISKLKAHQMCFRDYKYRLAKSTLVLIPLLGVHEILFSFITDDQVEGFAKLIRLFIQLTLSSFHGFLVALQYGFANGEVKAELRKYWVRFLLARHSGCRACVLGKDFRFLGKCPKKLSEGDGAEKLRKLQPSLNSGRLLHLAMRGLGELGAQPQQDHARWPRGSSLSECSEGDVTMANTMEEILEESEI", "assay": "Positive ago-allosteric modulation of GLP2R overexpressed in human SE302 cells assessed as placental alkaline phosphatase activation at 50 uM measured on day 3 by Alamar Blue assay relative to 100 pM GLP2", "assay_type": "cell-based"}, "[2]": {"target": "T2, Glucagon-like peptide 2 receptor (Homo sapiens, UniProt O95838)", "T2 sequence (O95838 whole entry)": "T1 sequence (whole entry)", "assay": "(§1) Positive ago-allosteric modulation of GLP2R overexpressed in human SE302 cells assessed as placental alkaline phosphatase activation measured on day 3 by Alamar Blue assay", "assay_type": "cell-based"}, "[3]": {"target": "T1, Glucagon-like peptide 2 receptor (Homo sapiens)", "assay": "Positive ago-allosteric modulation of GLP2R overexpressed in human SE302 cells assessed as increase in GLP2 (11 to 33)-induced placental alkaline phosphatase activation at 10 uM measured on day 3 by Alamar Blue assay relative to GLP2", "assay_type": "cell-based"}, "[4]": {"target": "T1, Glucagon-like peptide 2 receptor (Homo sapiens)", "assay": "Positive ago-allosteric modulation of GLP2R overexpressed in human SE302 cells assessed as GLP2 (3 to 33)-induced placental alkaline phosphatase activation at 10 uM measured on day 3 by Alamar Blue assay relative to GLP2", "assay_type": "cell-based"}, "[5]": {"target": "T1, Glucagon-like peptide 2 receptor (Homo sapiens)", "assay": "Positive ago-allosteric modulation of GLP2R overexpressed in human SE302 cells assessed as placental alkaline phosphatase activation at 25 uM measured on day 3 by Alamar Blue assay relative to 100 pM GLP2", "assay_type": "cell-based"}, "[6]": {"target": "T1, Glucagon-like peptide 2 receptor (Homo sapiens)", "assay": "as §1", "assay_type": "cell-based"}, "[7]": {"target": "T1, Glucagon-like peptide 2 receptor (Homo sapiens)", "assay": "Positive ago-allosteric modulation of GLP2R overexpressed in human SE302 cells assessed as placental alkaline phosphatase activation at 50 uM measured on day 3 by Alamar Blue assay relative to 10 pM GLP2", "assay_type": "cell-based"}, "[8]": {"target": "T1, Glucagon-like peptide 2 receptor (Homo sapiens)", "assay": "Positive ago-allosteric modulation of GLP2R overexpressed in human SE302 cells assessed as placental alkaline phosphatase activation at 25 uM measured on day 3 by Alamar Blue assay relative to 10 pM GLP2", "assay_type": "cell-based"}, "[9]": {"target": "T1, Glucagon-like peptide 2 receptor (Homo sapiens)", "assay": "Positive ago-allosteric modulation of GLP2R overexpressed in human SE302 cells assessed as increase in (Z)-methyl 2-(2-(2,5-dichlorothiophen-3-yl)-2-(hydroxyimino)ethylthio)benzoate-induced placental alkaline phosphatase activation measured on day 3 by Alamar Blue assay", "assay_type": "cell-based"}, "[10]": {"target": "T1, Glucagon-like peptide 2 receptor (Homo sapiens)", "assay": "Positive ago-allosteric modulation of GLP2R overexpressed in human SE302 cells assessed as placental alkaline phosphatase activation measured on day 3 by Alamar Blue assay relative to GLP2", "assay_type": "cell-based"}, "[11]": {"target": "T1, Glucagon-like peptide 2 receptor (Homo sapiens)", "assay": "Displacement of [125I]-Bolton Hunter labeled GLP2 from GLP2R overexpressed in human SE302 cell membranes at 10 uM after 2 hrs by gamma counter"}, "[12]": {"target": "T1, Glucagon-like peptide 2 receptor (Homo sapiens)", "assay": "Displacement of [125I]-Bolton Hunter labeled GLP2 from GLP2R overexpressed in human SE302 cell membranes at 1 uM after 2 hrs by gamma counter"}, "[13]": {"target": "T1, Glucagon-like peptide 2 receptor (Homo sapiens)", "assay": "Positive ago-allosteric modulation of GLP2R overexpressed in human SE302 cells assessed as reduction of GLP2-induced cAMP level at 3 to 10 uM after 30 mins", "assay_type": "functional, cell-based"}}, "note": "Active and inactive are the calls of the source. No cut-off for these calls is given here."}
{"molecule": "O/N=C(\\CSc1cccnc1)c1cc(Cl)sc1Cl", "values": [{"measurement": "%max", "setting": "[1]", "value": 27, "unit": "%"}]}
{"molecule": "H-DGSFSDEMNTILDNLAARDFINWLIQTKITD-OH", "values": [{"measurement": "EC50", "setting": "[2]", "value": 0.031, "unit": "µM"}]}
{"molecule": "CC(C)(C)c1cc(/C(CSc2ccccc2)=N/O)cc(C(C)(C)C)c1", "values": [{"measurement": "Activity", "setting": "[3]", "value": "Active"}, {"measurement": "Activity", "setting": "[4]", "value": "Active"}, {"measurement": "%max", "setting": "[5]", "value": 31, "unit": "%"}]}
{"molecule": "COc1ccccc1SC/C(=N\\O)c1cc(Cl)sc1Cl", "values": [{"measurement": "Activity", "setting": "[6]", "value": "inactive"}, {"measurement": "%max", "setting": "[7]", "value": 78, "unit": "%"}]}
{"molecule": "N#Cc1cccc(/C(CSc2ccccc2)=N/O)c1", "values": [{"measurement": "%max", "setting": "[7]", "value": 8, "unit": "%"}]}
{"molecule": "O/N=C(\\CSc1ccccc1)c1cccc(C(F)(F)F)c1", "values": [{"measurement": "%max", "setting": "[8]", "value": 95, "unit": "%"}]}
{"molecule": "O/N=C(\\CSc1ccc(F)cc1)c1cc(Cl)sc1Cl", "values": [{"measurement": "%max", "setting": "[5]", "value": 134, "unit": "%"}, {"measurement": "%max", "setting": "[8]", "value": 945, "unit": "%"}]}
{"molecule": "Cc1cnccc1SC/C(=N\\O)c1cc(Cl)sc1Cl", "values": [{"measurement": "%max", "setting": "[1]", "value": 44, "unit": "%"}]}
{"molecule": "O/N=C(\\CSc1ccccc1)c1cccc(F)c1", "values": [{"measurement": "%max", "setting": "[8]", "value": 54, "unit": "%"}]}
{"molecule": "H-NTILDNLAARDFINWLIQTKITD-OH", "values": [{"measurement": "Activity", "setting": "[9]", "value": "Dose-dependent effect"}, {"measurement": "%max", "setting": "[10]", "value": 11, "unit": "%"}, {"measurement": "Activity", "setting": "[11]", "value": 100, "unit": "%"}, {"measurement": "Activity", "setting": "[12]", "value": 88, "unit": "%"}, {"measurement": "EC50", "setting": "[2]", "value": 1.3, "unit": "µM"}, {"measurement": "Activity", "setting": "[13]", "value": "Dose-dependent effect"}]}
{"molecule": "O/N=C(\\CSc1ccccc1)c1cc(C(F)(F)F)cc(C(F)(F)F)c1", "values": [{"measurement": "%max", "setting": "[5]", "value": 29, "unit": "%"}, {"measurement": "%max", "setting": "[8]", "value": 517, "unit": "%"}]}
{"molecule": "O/N=C(\\CSc1ccccc1)c1cccc(Br)c1", "values": [{"measurement": "%max", "setting": "[8]", "value": 42, "unit": "%"}]}
